Bounds are passed on as bounds.

The results in this text go back to patent US20070149519A1, “Benzimidazol substituted thiopene derivatives with activity on ikk3” (priority 2004, published 2007).

The target of this assay is T1, Recombinant human IKK3 (Homo sapiens, UniProt Q14164).
T1 construct: FLAG; made in house
T1 sequence (Q14164 1-716): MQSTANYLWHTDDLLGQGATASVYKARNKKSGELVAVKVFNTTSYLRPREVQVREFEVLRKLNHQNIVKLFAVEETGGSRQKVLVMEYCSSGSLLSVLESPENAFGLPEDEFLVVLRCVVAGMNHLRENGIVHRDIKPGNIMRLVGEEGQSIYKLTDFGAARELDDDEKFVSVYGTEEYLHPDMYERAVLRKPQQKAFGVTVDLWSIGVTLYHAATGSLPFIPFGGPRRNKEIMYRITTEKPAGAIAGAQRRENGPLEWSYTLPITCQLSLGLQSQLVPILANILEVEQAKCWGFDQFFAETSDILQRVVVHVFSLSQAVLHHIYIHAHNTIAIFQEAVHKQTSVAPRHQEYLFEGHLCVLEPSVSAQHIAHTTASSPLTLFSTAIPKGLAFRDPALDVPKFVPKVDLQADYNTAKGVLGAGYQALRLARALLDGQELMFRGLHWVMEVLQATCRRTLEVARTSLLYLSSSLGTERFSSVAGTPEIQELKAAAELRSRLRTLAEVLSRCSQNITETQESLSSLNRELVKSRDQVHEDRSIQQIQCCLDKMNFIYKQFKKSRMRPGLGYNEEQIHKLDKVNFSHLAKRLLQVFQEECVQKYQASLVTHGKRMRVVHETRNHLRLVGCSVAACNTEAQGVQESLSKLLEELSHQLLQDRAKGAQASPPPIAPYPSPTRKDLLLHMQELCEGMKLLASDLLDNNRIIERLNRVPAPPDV
Nature of the assay: IKK3 TR-FRET kinase assay. It counts as biochemical. As to conditions: IKK3 15 nM, GST-IκBα 25 nM, ATP 2 μM, 15 minutes at room temperature. The method, then: Recombinant human IKK3 was expressed in baculovirus as a FLAG tagged fusion protein, and its activity was assessed using a time-resolved fluorescence resonance energy transfer (TR-FRET) assay. Briefly, IKK3 (15 nM final) diluted in assay buffer (50 mM HEPES, 10 mM MgCl2, 1 mM CHAPS pH 7.4 with 1 mM DTT and 0.01% w/v BSA) was added to wells containing various concentrations of compound or DMSO vehicle (3% final). The reaction was initiated by the addition of GST-IκBα substrate (25 nM final)/ATP (2 μM final), in a total volume of 30 μl. The reaction was incubated for 15 minutes at room temperature, then terminated by the addition of 15 μl of 50 mM EDTA. Detection reagent (15 μl) in buffer (100 mM HEPES pH 7.4, 150 mM NaCl and 0.1% w/v BSA) containing antiphosphoserine-IκBα-32/36 monoclonal antibody 12C2 (Cell Signalling Technology, Massachusetts, USA) labelled with W-1024 europium chelate (Wallac OY, Turku, Finland), and an APC-labelled anti-GST antibody (Prozyme, San Leandro, Calif., USA) was added and the reaction was further incubated for 45 minutes at room temperature. The degree of phosphorylation of GST-IκBα was measured using a Packard Discovery plate reader (Perkin-Elmer Life Sciences, Pangbourne, UK) as a ratio of specific 665 nm energy transfer signal to reference europium 620 nm signal.
(In TR-FRET formats the signal depends on donor and acceptor labels being close together.)
For orientation: IC50 means the midpoint of a concentration-inhibition curve. Consider `COc1cc2ncn(-c3cc(OCc4ccc(CO)cc4)c(C#N)s3)c2cc1OC` [Example 1, 5-[5,6-Bis(methyloxy)-1H-benzimidazol-1-yl]-3-({[4-(hydroxymethyl)phenyl]methyl}oxy)-2-thiophenecarbonitrile], for which the concentration for half-maximal inhibition (IC50) was less than 1 µM.
For `COc1cc2ncn(-c3cc(O[C@H](C)c4ccccc4Cl)c(C#N)s3)c2cc1OC` [Example 2, 5-[5,6-Bis(methyloxy)-1H-benzimidazol-1-yl]-3-{[(1R)-1-(2-chlorophenyl)ethyl]oxy}-2-thiophenecarbonitrile], the half-inhibitory concentration (IC50) is 1 to 10 µM.
In the case of `Cc1ccccc1COc1cc(-n2cnc3ccccc32)sc1C#N` [Example 3, 5-(1H-Benzimidazol-1-yl)-3-{[(2-methylphenyl)methyl]oxy}-2-thiophenecarbonitrile] it was less than 1 µM; in that of `N#Cc1sc(-n2cnc3ccccc32)cc1OCc1ccccc1` [Example 4, 5-(1H-Benzimidazol-1-yl)-3-[(phenylmethyl)oxy]-2-thiophenecarbonitrile], 1 to 10 µM; in that of `COc1cc2ncn(-c3cc(OCc4ccccc4C(F)(F)F)c(C#N)s3)c2cc1OC` [Example 5, 5-[5,6-Bis(methyloxy)-1H-benzimidazol-1-yl]-3-({[2-(trifluoromethyl)phenyl]methyl}oxy)-2-thiophenecarbonitrile], less than 1 µM.
In the case of `COc1cc2ncn(-c3cc(OCc4ccc5nnn(C)c5c4)c(C#N)s3)c2cc1OC` [Example 6, 5-[5,6-bis(methyloxy)-1H-benzimidazol-1-yl]-3-{[(1-methyl-1H-1,2,3-benzotriazol-6-yl)methyl]oxy}-2-thiophenecarbonitrile], the 50% inhibitory concentration (IC50) was less than 1 µM.
Regarding `COc1cc2c(cc1OCCN1CCOCC1)ncn2-c1cc(OCc2ccccc2C(F)(F)F)c(C#N)s1` [Example 7, 5-(6-(Methyloxy)-5-([2-(4-morpholinyl)ethyl]oxy)-1H-benzimidazol-1-yl)-3-({[2-(trifluoromethyl)phenyl]methyl}oxy)-2-thiophene carbonitrile], the IC50 is less than 1 µM.
Regarding `COc1cc2ncn(-c3cc(OCc4cc(F)ccc4F)c(C#N)s3)c2cc1OC` [Example 8, 5-[5,6-Bis(methyloxy)-1H-benzimidazol-1-yl]-3-{[(2,5-difluorophenyl)methyl]oxy}-2-thiophenecarbonitrile], the IC50 was less than 1 µM.
As to `COc1cc2ncn(-c3cc(OCc4ccccc4S(C)(=O)=O)c(C#N)s3)c2cc1OC` [Example 9, 5-[5,6-Bis(methyloxy)-1H-benzimidazol-1-yl]-3-({[2-(methylsulfonyl)phenyl]methyl}oxy)-2-thiophenecarbonitrile], the half-maximal inhibitory concentration (IC50) is less than 1 µM.
For the compound `N#Cc1sc(-n2cnc3cc(Cl)ccc32)cc1OCc1ccccc1` [Example 10, 5-(5-Chloro-1H-benzimidazol-1-yl)-3-[(phenylmethyl)oxy]-2-thiophenecarbonitrile], the IC50 was 1 to 10 µM.
Consider `COc1cc2ncn(-c3cc(OCc4c(F)cccc4F)c(C#N)s3)c2cc1OC` [Example 11, 5-[5,6-bis(Methyloxy)-1H-benzimidazol-1-yl]-3-{[(2,6-difluorophenyl)methyl]oxy}-2-thiophenecarbonitrile], for which the IC50 was less than 1 µM.
On to `COc1cc2c(cc1OCCCO)ncn2-c1cc(OCc2ccccc2C(F)(F)F)c(C#N)s1` [Example 12, 5-[5-[(3-Hvdroxypropyl)oxy]-6-(methyloxy)-1H-benzimidazol-1-yl]-3-({[2-(trifluoromethyl)phenyl]methyl}oxy)-2-thiophenecarbonitrile], for which the IC50 was less than 1 µM.
As to `COc1cc2ncn(-c3cc(OCc4ccncc4Br)c(C#N)s3)c2cc1OC` [Example 13, 5-[5,6-Bis(methyloxy)-1H-benzimidazol-1-yl]-3-{[(3-bromo-4-pyridinyl)methyl]oxy}-2-thiophenecarbonitrile], the half-inhibitory concentration (IC50) lay within 1 to 10 µM.
As to `COc1cc2ncn(-c3cc(OCC4CCCCC4)c(C#N)s3)c2cc1OC` [Example 14, 5-[5,6-Bis(methyloxy)-1H-benzimidazol-1-yl]-3-[(cyclohexylmethyl)oxy]-2-thiophenecarbonitrile], the 50% inhibitory concentration (IC50) was less than 1 µM.
On to `N#Cc1sc(-n2cnc3cc(C(=O)NCCN4CCOCC4)ccc32)cc1OCc1ccccc1C(F)(F)F` [Example 15, 1-[5-cyano-4-({[2-(trifluoromethyl)phenyl]methyl}oxy)-2-thienyl]-N-[2-(4-morpholinyl)ethyl]-1H-benzimidazole-5-carboxamide], for which the 50% inhibitory concentration (IC50) is less than 1 µM.
With `COc1cc2ncn(-c3cc(O[C@H](C)c4ccccc4C(F)(F)F)c(C#N)s3)c2cc1OC` [Example 16, 5-[5,6-Bis(methyloxy)-1H-benzimidazol-1-yl]-3-({(1 R)-1-[2-(trifluoromethyl)phenyl]ethyl}oxy)-2-thiophenecarbonitrile], the IC50 fell in the range of 1 to 10 µM.
As for `COc1cc2ncn(-c3cc(OCCc4ccccc4)c(C#N)s3)c2cc1OC` [Example 17, 5-[5,6-bis(methyloxy)-1H-benzimidazol-1-yl]-3-[(2-phenylethyl)oxy}-2-thiophenecarbonitrile], the 50% inhibitory concentration (IC50) was less than 1 µM.
As to `COc1cc2ncn(-c3cc(OCc4ccccc4OC(F)(F)F)c(C#N)s3)c2cc1OC` [Example 18, 5-[5,6-bis(methyloxy)-1H-benzimidazol-1-yl]-3-[({2-[(trifluoromethyl)oxy]phenyl}methyl)oxy]-2-thiophenecarbonitrile], the IC50 is less than 1 µM.
In the case of `COc1ccccc1COc1cc(-n2cnc3cc(OC)c(OC)cc32)sc1C#N` [Example 19, 5-[5,6-bis(methyloxy)-1H-benzimidazol-1-yl]-3-({[2-(methyloxy)phenyl]methyl}oxy)-2-thiophenecarbonitrile], the half-maximal inhibitory concentration (IC50) lay in the range of 1 to 10 µM.
Consider `COc1cc2ncn(-c3cc(OCCN4CCOCC4)c(C#N)s3)c2cc1OC` [Example 20, 5-[5,6-bis(methyloxy)-1H-benzimidazol-1-yl]-3-{[2-(4-morpholinyl)ethyl]oxy}-2-thiophenecarbonitrile], for which the IC50 lay within 1 to 10 µM.
In the case of `COc1cc2ncn(-c3cc(OCCN4CCCC4=O)c(C#N)s3)c2cc1OC` [Example 21, 5-[5,6-bis(methyloxy)-1H-benzimidazol-1-yl]-3-{[2-(2-oxo-1-pyrrolidinyl)ethyl]oxy}-2-thiophenecarbonitrile] it was less than 1 µM; in that of `COc1cc2ncn(-c3cc(OCC4CCCO4)c(C#N)s3)c2cc1OC` (stereo not shown) [Example 22, 5-[5,6-bis(methyloxy)-1H-benzimidazol-1-yl]-3-[(tetrahydro-2-furanylmethyl)oxy]-2-thiophenecarbonitrile], 1 to 10 µM; in that of `COc1cc2ncn(-c3cc(OCC4CCCCO4)c(C#N)s3)c2cc1OC` (stereo not shown) [Example 23, 5-[5,6-bis(methyloxy)-1H-benzimidazol-1-yl]-3-[(tetrahydro-2 H-pyran-2-ylmethyl)oxy]-2-thiophenecarbonitrile], less than 1 µM.
As to `COc1cc2ncn(-c3cc(OCCOc4ccccc4)c(C#N)s3)c2cc1OC` [Example 24, 5-[5,6-bis(methyloxy)-1H-benzimidazol-1-yl]-3-{[2-(phenyloxy)ethyl]oxy}-2-thiophenecarbonitrile], the IC50 is less than 1 µM.
In the case of `CCC[C@H](Oc1cc(-n2cnc3cc(OC)c(OC)cc32)sc1C#N)c1ccccc1Cl` [Example 25, 5-[5,6-bis(methyloxy)-1H-benzimidazol-1-yl]-3-{[(1S)-1-(2-chlorophenyl)butyl]oxy}-2-thiophenecarbonitrile] it was less than 1 µM.
Turning to `COc1cc2ncn(-c3cc(OCc4ccsc4)c(C#N)s3)c2cc1OC` [Example 26, 5-[5,6-bis(methyloxy)-1H-benzimidazol-1-yl]-3-[(3-thienylmethyl)oxy]-2-thiophenecarbonitrile], the IC50 is less than 1 µM.
For `COc1cc2ncn(-c3cc(OCc4cccs4)c(C#N)s3)c2cc1OC` [Example 27, 5-[5,6-bis(methyloxy)-1H-benzimidazol-1-yl]-3-[(2-thienylmethyl)oxy]-2-thiophenecarbonitrile], the IC50 was less than 1 µM.
For `CC[C@@H](C)Oc1cc(-n2cnc3cc(OC)c(OC)cc32)sc1C#N` [Example 28, 5-[5,6-bis(methyloxy)-1H-benzimidazol-1-yl]-3-{[(1 R)-1-methylpropyl]oxy}-2-thiophenecarbonitrile], the IC50 was in the range of 1 to 10 µM.
